This assay deals with P388 leukemia ip, CD2F1 mice, survival T/C. The experiment in a line: NCI In Vivo Anticancer Drug Screen. Data for tumor model P388 Leukemia (intraperitoneal) in CD2F1 (CDF1) mice. The settings on record: endpoint: median survival time, higher = longer survival. Put shortly: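 Mice carrying the transplanted tumor received test compound or vehicle. Survival was recorded in each group, and the value is the treated-group measurement divided by that of the vehicle-treated control group.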

Setting [1] is: dose: 100.0 mg/kg/injection, schedule: Q01DX009 (ip), vehicle: Klucel (hydroxypropylcellulose) (HPC).
Setting [2] is: dose: 200.0 mg/kg/injection, schedule: Q01DX009 (ip), vehicle: Klucel (hydroxypropylcellulose) (HPC).
Where [3] appears, read: dose: 400.0 mg/kg/injection, schedule: Q01DX009 (ip), vehicle: Klucel (hydroxypropylcellulose) (HPC).
The mark [4] stands for this setting: dose: 60.0 mg/kg/injection, schedule: Q01DX005 (ip), vehicle: saline with Tween-80.
Where [5] appears, read: dose: 120.0 mg/kg/injection, schedule: Q01DX005 (ip), vehicle: saline with Tween-80.
Setting [6] is: dose: 240.0 mg/kg/injection, schedule: Q01DX005 (ip), vehicle: saline with Tween-80.
Setting [7] is: dose: 50.0 mg/kg/injection, schedule: Q01DX009 (ip), vehicle: saline with Tween-80.
[8] abbreviates: dose: 100.0 mg/kg/injection, schedule: Q01DX009 (ip), vehicle: saline with Tween-80.
Where [9] appears, read: dose: 200.0 mg/kg/injection, schedule: Q01DX009 (ip), vehicle: saline with Tween-80.
Setting [10] is: dose: 10.0 mg/kg/injection, schedule: Q01DX009 (ip), vehicle: saline with Tween-80.
Where [11] appears, read: dose: 20.0 mg/kg/injection, schedule: Q01DX009 (ip), vehicle: saline with Tween-80.
Setting [12] is: dose: 100.0 mg/kg/injection, schedule: Q01DX001 (ip), vehicle: saline with Tween-80.
The mark [13] stands for this setting: dose: 200.0 mg/kg/injection, schedule: Q01DX001 (ip), vehicle: saline with Tween-80.
Where [14] appears, read: dose: 400.0 mg/kg/injection, schedule: Q01DX001 (ip), vehicle: saline with Tween-80.
Where [15] appears, read: dose: 25.0 mg/kg/injection, schedule: Q01DX009 (ip), vehicle: saline with Tween-80.
Setting [16] is: dose: 50.0 mg/kg/injection, schedule: Q01DX009 (ip), vehicle: Klucel (hydroxypropylcellulose) (HPC).

Where “and” joins values, the source holds several entries; their conditions need not be identical. Equal entries are not always repeated. Inconclusive results and toxic doses are left out.

As for `COc1cc2ccc(CC(=O)NCCc3ccc4c(c3)OCO4)cc2cc1OC`, the T/C was 100 % of control under setting [1], 100 % of control under setting [2] and 90 % of control under setting [3].
For the compound `c1ccc(-c2cc3c(cc4c5nncn5ncn34)o2)cc1`, the T/C reads like this: under setting [4], 86 % of control; under setting [5], 86 % of control; under setting [6], 91 % of control and 92 % of control.
On to `O=C1C=C(SCCO)C(=O)c2ccccc21`, for which the T/C was 100 % of control (dose: 0.62 mg/kg/injection, schedule: Q01DX009 (ip), vehicle: saline with Tween-80); 100 % of control (dose: 1.25 mg/kg/injection, schedule: Q01DX009 (ip), vehicle: saline with Tween-80); 95 % of control (dose: 2.5 mg/kg/injection, schedule: Q01DX009 (ip), vehicle: saline with Tween-80).
With `CCOC(=O)CCC1CCCCC1=O` (stereo not given), the T/C reads like this: under setting [7], 103 % of control; under setting [8], 93 % of control; under setting [9], 103 % of control.
`Cc1ccc(N2C(c3ccccc3)=CC(=C3C=CC(=O)C=C3)C=C2c2ccccc2)cc1`: the T/C is 110 % of control (dose: 3.75 mg/kg/injection, schedule: Q01DX005 (ip), vehicle: saline with Tween-80); 112 % of control (dose: 7.5 mg/kg/injection, schedule: Q01DX005 (ip), vehicle: saline with Tween-80); 103 % of control (dose: 15.0 mg/kg/injection, schedule: Q01DX005 (ip), vehicle: saline with Tween-80).
As to `O=C1C(=O)c2ccccc2C(O)=C1CCCc1ccc(OCc2ccccc2)cc1`, the T/C (dose: 5.0 mg/kg/injection, schedule: Q01DX009 (ip), vehicle: saline with Tween-80) was 107 % of control; the T/C under setting [10] is 117 % of control; the T/C under setting [11] is 108 % of control; the T/C (dose: 40.0 mg/kg/injection, schedule: Q01DX009 (ip), vehicle: saline with Tween-80) is 105 % of control.
In the case of `COc1cc2ccnc(-c3nccc4cc(OC)c(OC)cc34)c2cc1OC`, the T/C under setting [12] was 97 % of control, the T/C under setting [13] is 92 % of control and the T/C under setting [14] was 97 % of control.
For the compound `CCO/C=C1\SC(=S)N(c2ccco2)C1=O`, the T/C (dose: 100.0 mg/kg/injection, schedule: Q04DX003 (ip), vehicle: saline with Tween-80) was 118 % of control; the T/C (dose: 200.0 mg/kg/injection, schedule: Q04DX003 (ip), vehicle: saline with Tween-80) is 118 % of control; the T/C (dose: 400.0 mg/kg/injection, schedule: Q04DX003 (ip), vehicle: saline with Tween-80) was 104 % of control.
`O=C(c1ccccc1)c1c(-c2ccccc2)c(=O)n2c(sc3ccccc32)c1C(=O)c1ccccc1`: the T/C runs as follows: under setting [12], 93 % of control; under setting [13], 100 % of control; under setting [14], 109 % of control.
With `CN(C)C1=NC(NCCc2ccccc2)(N(C)C)OC(N(C)C)=N1` (stereo not given), the T/C by setting is: (dose: 25.0 mg/kg/injection, schedule: Q01DX005 (ip), vehicle: saline) 100 % of control; (dose: 50.0 mg/kg/injection, schedule: Q01DX005 (ip), vehicle: saline) 107 % of control; (dose: 100.0 mg/kg/injection, schedule: Q01DX005 (ip), vehicle: saline) 100 % of control.
As to `C=CCOc1ccncc1`, the T/C by setting is: (dose: 12.5 mg/kg/injection, schedule: Q01DX009 (ip), vehicle: saline with Tween-80) 100 % of control; under setting [15], 95 % of control; under setting [7], 90 % of control.
On to `COC(=O)N/N=C\c1ccc(O)c(OC)c1`, for which the T/C (dose: 50.0 mg/kg/injection, schedule: Q04DX003 (ip), vehicle: saline) is 97 % of control; the T/C (dose: 100.0 mg/kg/injection, schedule: Q04DX003 (ip), vehicle: saline) was 101 % of control; the T/C (dose: 200.0 mg/kg/injection, schedule: Q04DX003 (ip), vehicle: saline) was 97 % of control; the T/C (dose: 400.0 mg/kg/injection, schedule: Q04DX003 (ip), vehicle: saline) was 101 % of control.
Consider `COc1cc2cc(c1Cl)N(C)C(=O)C[C@H](OC(=O)[C@H](C)N(C)C(=O)CC(C)C)[C@]1(C)O[C@H]1[C@H](C)[C@@H]1C[C@@](O)(NC(=O)O1)[C@H](OC)C=C/C=C(\C)C2`, for which the T/C is 107 % of control (dose: 0.1 micrograms/kg/injection, schedule: Q01DX009 (ip), vehicle: saline); 107 % of control (dose: 0.2 micrograms/kg/injection, schedule: Q01DX009 (ip), vehicle: saline); 114 % of control (dose: 0.4 micrograms/kg/injection, schedule: Q01DX009 (ip), vehicle: saline); 158 % of control (dose: 6.3 micrograms/kg/injection, schedule: Q01DX009 (ip), vehicle: saline + alcohol); 169 % of control (dose: 12.5 micrograms/kg/injection, schedule: Q01DX009 (ip), vehicle: saline + alcohol); 198 % of control (dose: 25.0 micrograms/kg/injection, schedule: Q01DX009 (ip), vehicle: saline + alcohol).
Turning to `CCC1OC(=O)CC(O)C(C)C(OC2OC(C)C(O)C(N(C)C)C2O)C(CC=O)CC(C)C(=O)/C=C/C2(C)OC2C1C` (stereo not given), the T/C by setting is: (dose: 9.38 mg/kg/injection, schedule: Q01DX009 (ip), vehicle: Klucel (hydroxypropylcellulose) (HPC)) 110 % of control; (dose: 9.4 mg/kg/injection, schedule: Q01DX009 (ip), vehicle: Klucel (hydroxypropylcellulose) (HPC)) 95 % of control; (dose: 18.75 mg/kg/injection, schedule: Q01DX009 (ip), vehicle: Klucel (hydroxypropylcellulose) (HPC)) 101 % of control and 119 % of control; (dose: 37.5 mg/kg/injection, schedule: Q01DX009 (ip), vehicle: Klucel (hydroxypropylcellulose) (HPC)) 103 % of control; (dose: 75.0 mg/kg/injection, schedule: Q01DX009 (ip), vehicle: Klucel (hydroxypropylcellulose) (HPC)) 101 % of control and 123 % of control; (dose: 150.0 mg/kg/injection, schedule: Q01DX009 (ip), vehicle: Klucel (hydroxypropylcellulose) (HPC)) 124 % of control.
Consider `COC(=O)C1=NNC(C(=O)OC)=C(c2ccccc2)C(c2ccccc2)=N1`, for which the T/C is, setting by setting: (dose: 25.0 mg/kg/injection, schedule: Q01DX009 (ip), vehicle: Klucel (hydroxypropylcellulose) (HPC)) 89 % of control; under setting [16], 90 % of control; under setting [1], 93 % of control; under setting [2], 98 % of control; under setting [3], 106 % of control.
For `Cc1ncc(C(O)CCC2OCCO2)n1Cc1ccccc1` (stereo not given), the T/C runs as follows: under setting [16], 96 % of control; under setting [1], 98 % of control; under setting [2], 98 % of control.
Take `CCCCCCCCCCCC(=O)NC(=S)Nc1ccccc1C(=O)OC`: the T/C is 105 % of control (dose: 25.0 mg/kg/injection, schedule: Q01DX009 (ip), vehicle: saline) and 99 % of control (dose: 50.0 mg/kg/injection, schedule: Q01DX009 (ip), vehicle: saline).
With `COc1ccc(C2OCOCC2C)cc1` (stereo not given), the T/C runs as follows: under setting [15], 103 % of control; under setting [7], 100 % of control; under setting [8], 103 % of control; under setting [9], 101 % of control; (dose: 400.0 mg/kg/injection, schedule: Q01DX009 (ip), vehicle: saline with Tween-80) 95 % of control.
As for `O=C(/C=C/C(=O)Nc1ccc(F)cc1F)Nc1ccc(F)cc1F`, the T/C under setting [4] was 94 % of control and 95 % of control; the T/C under setting [5] was 98 % of control; the T/C under setting [6] was 104 % of control and 97 % of control.
For `C=C1C(=O)C23C(O)C1CCC2C12COC3(O)C(O)C1C(C)(C)CCC2OC(C)=O` (stereo not given), the T/C was 117 % of control under setting [10], 117 % of control under setting [11] and 110 % of control under setting [15].
As to `Cc1cccc(C)c1NC(=O)C(Cl)(Cl)Sc1ccc(Cl)cc1Cl`, the T/C is 100 % of control under setting [7], 104 % of control under setting [8] and 109 % of control under setting [9].
On to `O=C1C2C3C=CC(O3)C2C(=O)N1/N=C/c1ccc2c(c1)OCO2` (stereo not given), for which the T/C runs as follows: (dose: 50.0 mg/kg/injection, schedule: Q01DX005 (ip), vehicle: saline with Tween-80) 97 % of control; (dose: 100.0 mg/kg/injection, schedule: Q01DX005 (ip), vehicle: saline with Tween-80) 102 % of control; (dose: 200.0 mg/kg/injection, schedule: Q01DX005 (ip), vehicle: saline with Tween-80) 93 % of control.
For `Nc1ncnc2c1c(-c1ccccc1)cn2-c1ccc(Br)cc1`, the T/C is 108 % of control under setting [4], 100 % of control under setting [5] and 96 % of control under setting [6].

Source of the values: PubChem BioAssay AID330 (DTP/NCI, 2004).
